Read-outs that look alike come from different tables or passages of the source.

For the assay, the target named is T1, hTG2 (Homo sapiens, UniProt P21980).
T1 sequence (P21980 1-687): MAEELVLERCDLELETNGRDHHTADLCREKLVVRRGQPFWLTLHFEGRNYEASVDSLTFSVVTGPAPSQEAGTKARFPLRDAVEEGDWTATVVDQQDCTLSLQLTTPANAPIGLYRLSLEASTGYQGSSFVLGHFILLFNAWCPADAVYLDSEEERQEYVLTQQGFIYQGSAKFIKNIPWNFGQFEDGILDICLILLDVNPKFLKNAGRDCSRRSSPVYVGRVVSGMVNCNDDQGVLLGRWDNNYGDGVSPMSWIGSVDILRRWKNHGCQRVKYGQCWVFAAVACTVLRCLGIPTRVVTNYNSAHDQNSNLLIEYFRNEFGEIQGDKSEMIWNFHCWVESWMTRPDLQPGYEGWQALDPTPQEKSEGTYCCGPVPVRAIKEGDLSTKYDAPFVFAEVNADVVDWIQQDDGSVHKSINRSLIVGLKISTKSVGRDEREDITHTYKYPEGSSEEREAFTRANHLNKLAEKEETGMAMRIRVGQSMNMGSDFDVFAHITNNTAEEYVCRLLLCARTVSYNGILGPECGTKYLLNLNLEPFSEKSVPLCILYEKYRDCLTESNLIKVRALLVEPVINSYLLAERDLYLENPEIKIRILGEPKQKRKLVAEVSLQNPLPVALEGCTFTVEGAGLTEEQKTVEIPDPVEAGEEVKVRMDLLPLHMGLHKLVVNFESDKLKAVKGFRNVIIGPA
Put plainly: biochemical. Here is the method:
The ability of the compounds to inhibit TG2 transamidase activity and the kinetics of TG2 inhibition were investigated using a colorimetric activity assay, as follows:
Colorimetric transamidase activity assay. The activities of hTG1, hTG2 and hTG6 were measured via a colorimetric assay using the chromogenic substrate Cbz-Glu(γ-p-nitrophenyl ester)Gly (AL5), as described (Leblanc, A. et al., “Kinetic studies of guinea pig liver transglutaminase reveal a general-base-catalyzed deacylation mechanism.” Biochemistry 2001, 40 (28), 8335-8342). Assays were conducted at 25° C. in 50 mM MOPS buffer (pH 6.95) containing 7.5 mM CaCl2. […] The substrate AL5 was prepared in as a stock solution in DMSO such that the final concentration of this co-solvent was constant at 2.5% v/v. Stock solutions of the inhibitors were made in water ranging in concentration from 100-500 μM. The reaction was initiated with the addition of enzyme, 0.10 μM hTG1, 0.25 μM hTG2 (4.6 mU/mL) or 0.32 μM hTG6. Formation of hydrolysis product, p-nitrophenolate (pNP), was monitored at 405 nm in a polystyrene 96-well microplate using a BioTek Synergy 4 plate reader. The observed first-order rate constants of inactivation (kobs) were determined via non-linear regression fit to a mono-exponential model (Eqn 1) of absorbance versus time curves. These rate constants (kobs) were in turn fit to a saturation kinetics model (Eqn 2), by non-linear regression, providing the kinetic parameters kinact and KI, as previously described by Stone and Hofsteenge (Stone, S. R. and Hofsteenge, J., “Specificity of activated human protein C.” Biochem. J. 1985, 230 (2), 497-502). […] Experiments were completed in triplicate at minimum.
Fitting of this time-dependent inactivation to a monoexponential equation gave first-order rate constants, kobs. […] In some cases, the kinetic data were fitted to a linear double reciprocal equation.

The mark [1] stands for this setting: fit to saturation kinetics model, 25° C., pH 6.95, 100 μM AL5, read-out: KI (converted).
Setting [2] is: fit to saturation kinetics model, 25° C., pH 6.95, 100 μM AL5, read-out: kinact (converted).
Where [3] appears, read: fit to saturation kinetics model, 25° C., pH 6.95, 100 μM AL5, read-out: kinact/KI (converted).

As to `C=CC(=O)NCCCC[C@H](NC(=O)c1ccc2ccccc2c1)C(=O)N1CCN(C(=O)c2cccc3ccccc23)CC1` [Inhibitor 65, (S)-N-(1-(4-(1-naphthoyl)piperazin-1-yl)-6-acrylamido-1-oxohexan-2-yl)-2-naphthamide], the Ki under setting [1] was 8 ± 1.8 µM. Also, under setting [2], the kinact is 0.00483 s⁻¹. For the same compound, the kinact/KI under setting [3] is 608 M⁻¹ s⁻¹.
As for `C=CC(=O)NCCCC[C@H](NC(=O)c1cccc2ccccc12)C(=O)N1CCN(C(=O)c2cccc3ccccc23)CC1` [Inhibitor 66, (S)-N-(1-(4-(1-naphthoyl)piperazin-1-yl)-6-acrylamido-1-oxohexan-2-yl)-1-naphthamide], the Ki was 9.3 µM, the kinact was 0.00433 s⁻¹ and the kinact/KI was 458 M⁻¹ s⁻¹. Also, under setting [1], the inhibition constant Ki is 20.3 ± 5.1 µM. The kinact/KI (pH 6.95) is 335 M⁻¹ s⁻¹.
In the case of `C=CC(=O)NCCCC[C@H](NC(=O)CCc1ccccc1)C(=O)N1CCN(C(=O)c2cccc3ccccc23)CC1` [Inhibitor 68, (S)-N-(6-(4-(1-naphthoyl)piperazin-1-yl)-6-oxo-5-(3-phenylpropanamido)hexyl)acrylamide], the Ki under setting [1] is 2.8 ± 0.3 µM. Also, under setting [2], the kinact was 0.01 s⁻¹. In addition, under setting [3], the kinact/KI is 3570 M⁻¹ s⁻¹.
The matching figures for `C=CC(=O)NCCCC[C@H](NC(=O)CCCc1ccccc1)C(=O)N1CCN(C(=O)c2cccc3ccccc23)CC1` [Inhibitor 69, (S)-N-(1-(4-(1-naphthoyl)piperazin-1-yl)-6-acrylamido-1-oxohexan-2-yl)-4-phenylbutanamide]: 5.3 ± 0.6 µM, 0.0035 s⁻¹ and 660 M⁻¹ s⁻¹.
Taken in the same sequence, the figures for `C=CC(=O)NCCCC[C@H](NC(=O)Cc1ccc(F)cc1)C(=O)N1CCN(C(=O)c2cccc3ccccc23)CC1` [Inhibitor 70, (S)-N-(6-(4-(1-naphthoyl)piperazin-1-yl)-5-(2-(4-fluorophenyl)acetamido)-6-oxohexyl)acrylamide] were 4.2 ± 0.9 µM, 0.00817 s⁻¹ and 1980 M⁻¹ s⁻¹.
Taken in the same sequence, the figures for `C=CC(=O)NCCCC[C@H](NC(=O)Cc1cccc(F)c1)C(=O)N1CCN(C(=O)c2cccc3ccccc23)CC1` [Inhibitor 71, (S)-N-(6-(4-(1-naphthoyl)piperazin-1-yl)-5-(2-(3-fluorophenyl)acetamido)-6-oxohexyl)acrylamide] were 4.9 ± 0.5 µM, 0.0125 s⁻¹ and 2580 M⁻¹ s⁻¹.
On to `C=CC(=O)NCCCC[C@H](NC(=O)Cc1cccc(Cl)c1)C(=O)N1CCN(C(=O)c2cccc3ccccc23)CC1` [Inhibitor 73, (S)-N-(6-(4-(1-naphthoyl)piperazin-1-yl)-5-(2-(3-chlorophenyl)acetamido)-6-oxohexyl)acrylamide], for which the Ki under setting [1] was 1 ± 0.5 µM. For the same compound, under setting [2], the inactivation rate constant (kinact) is 0.005 s⁻¹. Further, the kinact/KI under setting [3] is 4830 M⁻¹ s⁻¹.
Turning to `C=CC(=O)NCCCC[C@H](NC(=O)Cc1ccccc1OC)C(=O)N1CCN(C(=O)c2cccc3ccccc23)CC1` [Inhibitor 75, (S)-N-(6-(4-(1-naphthoyl)piperazin-1-yl)-5-(2-(2-methoxyphenyl)acetamido)-6-oxohexyl)acrylamide], the Ki under setting [1] was 4.6 ± 2.9 µM. Moreover, the kinact under setting [2] was 0.0233 s⁻¹. The kinact/KI under setting [3] was 4980 M⁻¹ s⁻¹.
As for `C=CC(=O)NCCCC[C@H](NC(=O)Cc1cccc(Cl)c1Cl)C(=O)N1CCN(C(=O)c2cccc3ccccc23)CC1` [Inhibitor 78, (S)-N-(6-(4-(1-naphthoyl)piperazin-1-yl)-5-(2-(2,3-dichlorophenyl)acetamido)-6-oxohexyl)acrylamide], the inhibition constant (Ki) under setting [1] was 2.7 ± 2.8 µM. The inactivation rate constant (kinact) under setting [2] was 0.00767 s⁻¹. Besides, the kinact/KI under setting [3] was 2830 M⁻¹ s⁻¹.
As for `C=CC(=O)NCCCC[C@H](NC(=O)Cc1ccc(Cl)c(Cl)c1)C(=O)N1CCN(C(=O)c2cccc3ccccc23)CC1` [Inhibitor 79, (S)-N-(6-(4-(1-naphthoyl)piperazin-1-yl)-5-(2-(3,4-dichlorophenyl)acetamido)-6-oxohexyl)acrylamide], the inhibitory constant (Ki) under setting [1] is 0.58 ± 0.3 µM. In addition, under setting [2], the kinact was 0.00133 s⁻¹. The kinact/KI under setting [3] is 2180 M⁻¹ s⁻¹.
With `C=CC(=O)NCCCC[C@H](NC(=O)Cc1ccc(F)cc1F)C(=O)N1CCN(C(=O)c2cccc3ccccc23)CC1` [Inhibitor 80, (S)-N-(6-(4-(1-naphthoyl)piperazin-1-yl)-5-(2-(2,4-difluorophenyl)acetamido)-6-oxohexyl)acrylamide], under setting [1], the Ki is 2.8 ± 0.9 µM. Moreover, the kinact under setting [2] was 0.0103 s⁻¹. The kinact/KI under setting [3] is 3730 M⁻¹ s⁻¹.
On to `C=CC(=O)NCCCC[C@H](NC(=O)Cc1ccccc1C(F)(F)F)C(=O)N1CCN(C(=O)c2cccc3ccccc23)CC1` [Inhibitor 81, (S)-N-(6-(4-(1-naphthoyl)piperazin-1-yl)-5-(2-(2-trifluoromethylphenyl)acetamido)-6-oxohexyl)acrylamide], for which the Ki under setting [1] was 10.1 ± 3.1 µM. Also, the kinact under setting [2] is 0.0167 s⁻¹. Besides, the kinact/KI under setting [3] is 1670 M⁻¹ s⁻¹.
`C=CC(=O)NCCCC[C@H](NS(=O)(=O)Cc1ccccc1)C(=O)N1CCN(C(=O)c2cccc3ccccc23)CC1` [Inhibitor 88]: the Ki under setting [1] is 46.7 ± 10.2 µM. The kinact under setting [2] was 0.00883 s⁻¹. For the same compound, the kinact/KI under setting [3] is 190 M⁻¹ s⁻¹.
For the compound `C=CC(=O)NCCCC[C@H](NS(=O)(=O)c1ccccc1)C(=O)N1CCN(C(=O)c2cccc3ccccc23)CC1` [Inhibitor 89, (S)-N-(6-(4-(1-naphthoyl)piperazin-1-yl)-6-oxo-5-(phenylsulfonamido)hexyl)acrylamide], the Ki (values determined using a double-reciprocal analysis, read-out: KI (converted)) is 88.8 ± 6.7 µM. Further, the kinact (values determined using a double-reciprocal analysis, read-out: kinact (converted)) is 0.0105 s⁻¹. Moreover, the kinact/KI (values determined using a double-reciprocal analysis, read-out: kinact/KI (converted)) is 118 M⁻¹ s⁻¹.
As for `C=CC(=O)NCCCC[C@H](NS(=O)(=O)CC)C(=O)N1CCN(C(=O)c2cccc3ccccc23)CC1` [Inhibitor 90, (S)-N-(6-(4-(1-naphthoyl)piperazin-1-yl)-5-(ethylsulfonamido)-6-oxohexyl)acrylamide], the Ki under setting [1] was 26.6 ± 1.1 µM. In addition, under setting [2], the kinact was 0.0138 s⁻¹. Besides, under setting [3], the kinact/KI is 518 M⁻¹ s⁻¹.
`C=CC(=O)NCCCC[C@H](NS(C)(=O)=O)C(=O)N1CCN(C(=O)c2cccc3ccccc23)CC1` [Inhibitor 91, (S)-N-(6-(4-(1-naphthoyl)piperazin-1-yl)-5-(methylsulfonamido)-6-oxohexyl)acrylamide]: the Ki under setting [1] is 25.3 ± 7.1 µM. The kinact under setting [2] was 0.0095 s⁻¹. Also, the kinact/KI under setting [3] is 377 M⁻¹ s⁻¹.

As usually defined, the Ki is a dissociation constant, usually derived from enzyme kinetics or from competition with a known ligand. By kinact is commonly meant the maximal first-order rate at which the target is inactivated.

The record behind these values is patent US20240383869A1, “ARYLACETYL INHIBITORS OF TG2 AND USES THEREOF” (UNIVERSITY OF OTTAWA, priority 2021, published 2024).
